Measured values: patent publication US11096948B2, “Methods for treating helicobacter infection” (DEXCEL PHARMA TECHNOLOGIES LTD., priority 2016, dated 2021)
Several values for one entry are separate records, joined by “and”; a condition that tells them apart may be missing. Identical values can stand only once.

Columns and labels:
H. pylori ATCC No. 43826 = experiment: Disk diffusion susceptibility of H. pylori to sodium fusidate; assay type: cell-based, Helicobacter pylori; conditions: 4 days at 37° C., sample No. = replicate disk
Method: (§1) In vitro testing for the susceptibility of H. pylori to sodium fusidate was performed. Inoculation was made with a broth culture of two ATCC strains of H. pylori (ATCC No. 700824 and 43826) diluted to match a 0.5 McFarland turbidity standard. Disks containing increasing antibiotic concentrations (0.5-4.0%) were placed on seeded bacterial lawn on agar surface. Three disks with the same antibiotic concentration were placed on each plate. The disks were evenly distributed in a circle towards the periphery of the plate. Plates were incubated for 4 days at an incubation temperature of 37° C. (with Microaerophilic pach). Diameter of inhibition sizes was measured wherein each disk was considered to represent the center of the clear zone, namely the slope of the regression line is construed to correspond to the diffusion coefficient of the antibiotic in the agar. Negative control disks containing water instead of antibiotics were placed at the center of each dish. A separate plate with no disks was prepared as an additional control. […]

[1] = system: H. pylori ATCC No. 700824; experiment: as above; assay type: cell-based, Helicobacter pylori; conditions: 4 days at 37° C., sample No. = replicate disk
Method: as §1

[2] = system: different strains of H. pylori; experiment: In vitro studies against different strains of H. pylori; assay type: cell-based, Helicobacter pylori
Description: The present disclosure is based in part on the unexpected finding of bacteriostatic and/or bacteriocidic action of fusidic acid or a pharmaceutically acceptable salt or solvate thereof (e.g. sodium fusidate) against H. pylori. […] This finding provides a significant advantage over the hitherto known treatments, by increasing the percentage of patients in which eradication is achieved, reducing doses and side effects of conventional add-on therapy, preserving gut microbiota, and decreasing exposure to conventional antibiotics thereby decreasing antibiotic resistance. In addition, fusidic acid and/or salts and solvates thereof have no cross-resistance with the existing antibiotics used for the treatment of H. pylori and have low probability for developing resistance.

H. pylori = conditions: cited from earlier work
[3] = sodium fusidate con. 0.5% on disk
[4] = sodium fusidate con. 1.0% on disk
[5] = sodium fusidate con. 4.0% on disk

| SMILES | Diameter of inhibition (H. pylori ATCC No. 43826; [3]) [cm] | Diameter of inhibition (H. pylori ATCC No. 43826; [4]) [cm] | Diameter of inhibition (H. pylori ATCC No. 43826; [5]) [cm] | Diameter of inhibition [1, 3] | Diameter of inhibition [1, 4] | Diameter of inhibition [1, 5] [cm] | Activity against different strains of H. pylori [2] | Efficacy as monotherapy against H. pylori (H. pylori) |
| --- | --- | --- | --- | --- | --- | --- | --- | --- |
| CC(=O)O[C@H]1C[C@@]2(C)[C@@H](C[C@@H](O)[C@H]3[C@@]4(C)CC[C@@H](O)[C@@H](C)[C@@H]4CC[C@@]32C)/C1=C(\CCC=C(C)C)C(=O)O [Sodium fusidate, sodium fusidate] | ≥4.4 | ≥4.4 | ≥4.4 | 1.6 cm and 2 cm and 2.4 cm | 2.7 cm and 2.6 cm and 3.0 cm | ≥4.4 | active |  |
| CC(=O)O[C@H]1C[C@@]2(C)[C@@H](C[C@@H](O)[C@H]3[C@@]4(C)CC[C@@H](O)[C@@H](C)[C@@H]4CC[C@@]32C)/C1=C(\CCC=C(C)C)C(=O)O [fusidic acid, 29-Nordammara-17(20),24-dien-21-oic acid, 16-(acetyloxy)-3,11-dihydroxy-, (3α, 4α, 8α, 9α, 11α, 13α, 14β, 16β, 17Z)-] |  |  |  |  |  |  | active | ineffective |
